Here are results for 7 compounds from the Kinase Knowledgebase extract (Sharma et al. 2016).

The target of the test is MAPK14 (human) (UniProt Q16539). In words: Inhibtion of MAPK14 Kinase Activity.
MAPK14 (human), sequence (Q16539 whole entry, looked up): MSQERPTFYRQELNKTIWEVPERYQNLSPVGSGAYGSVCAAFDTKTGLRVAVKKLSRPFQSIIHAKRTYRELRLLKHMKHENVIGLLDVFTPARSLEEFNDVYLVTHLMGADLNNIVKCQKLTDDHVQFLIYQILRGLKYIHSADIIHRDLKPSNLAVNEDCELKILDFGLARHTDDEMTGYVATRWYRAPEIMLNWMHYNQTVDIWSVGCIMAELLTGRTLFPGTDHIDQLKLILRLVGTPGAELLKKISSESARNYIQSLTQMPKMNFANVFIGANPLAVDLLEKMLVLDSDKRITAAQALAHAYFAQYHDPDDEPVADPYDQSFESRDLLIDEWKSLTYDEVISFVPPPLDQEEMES

In general, IC50 refers to the point on the concentration scale where inhibition reaches its midpoint. Read a high IC50 as weaker potency in that assay. Regarding `CC(C)C[C@H](NCCCCCOc1cc(F)c(-n2c(N)c(C(=O)c3ccc(F)cc3)ccc2=O)c(F)c1)C(=O)O`, the IC50 was < 100 nM.

Take `CC(C)C[C@@H](NCCCOc1cc(F)c(-n2c(N)c(C(=O)c3ccc(F)cc3F)ccc2=O)c(F)c1)C(=O)O`: the IC50 was < 100 nM.

Regarding `CC(C)C[C@H](NCCCOc1cc(F)c(-n2c(N)c(C(=O)c3ccc(F)cc3)ccc2=O)c(F)c1)C(=O)OC1CCCC1`, the IC50 was < 100 nM.

As for `Nc1c(C(=O)c2ccc(F)cc2F)ccc(=O)n1-c1c(F)cc(OCCCN[C@@H](Cc2ccccc2)C(=O)OC2CCCC2)cc1F`, the IC50 was < 100 nM.

For the compound `Cc1cc(C(=O)c2ccc(=O)n(-c3ccc(OCCCN[C@H](C(=O)OC4CCCC4)c4ccccc4)cc3)c2N)ccc1F`, the IC50 is < 100 nM.

Consider `Nc1c(C(=O)c2ccc(F)cc2)ccc(=O)n1-c1c(F)cc(OC2CCC(N[C@@H](Cc3ccccc3)C(=O)OC3CCCC3)CC2)cc1F` (some centres not stated), for which the IC50 was < 100 nM.

For `Nc1c(C(=O)c2ccc(F)cc2F)ccc(=O)n1-c1ccc(OCCCN[C@H](C(=O)OC2CCCC2)c2ccccc2)cc1`, the IC50 is < 100 nM.
